{"source": "patent US5011840A", "about": "“Imidazolidinedione derivatives in diabetes treatment” (Pfizer Inc., priority 1989, dated 1991)", "key": {"aldose reductase": {"target": "T1, aldose reductase (Homo sapiens, UniProt P15121)", "T1 construct": "partially purified aldose reductase enzyme obtained from human placenta; from tissue; host or cells: human placenta", "assay": "Inhibition of aldose reductase enzyme activity (procedure of Hayman et al. as modified by Sestanj et al.)", "format": "biochemical", "details": "for inhibition at 10 µM: 10^-5 M; for inhibition at 1 µM: 10^-6 M; for inhibition at 0.1 µM: 10^-7 M; for aldose reductase inhibition (in words): qualitative statement", "method": "(§1) The activity of the compounds of the present invention, as agents for the control of chronic diabetic complications, is determined by their ability to successfully pass one or more of the following standard biological or pharmacological tests, viz., (1) measuring their ability to inhibit the enzyme activity of isolated aldose reductase; (2) measuring their ability to reduce or inhibit sorbitol accumulation in the sciatic nerve and lens of acutely streptozotocinized (i.e., diabetic) rats; (3) measuring their ability to reverse already-elevated sorbitol levels in the sciatic nerve and lens of chronic streptozotocin-induced diabetic rats; (4) measuring their ability to prevent or inhibit galactitol formation in the lens of acutely galactosemic rats, and (5) measuring their ability to delay cataract formation and reduce the severity of lens opacities in chronic galactosemic rats.\nThe following 5-substituted imidzolidinedione derivatives of Examples 1 and 4, respectively, were tested for their ability to reduce or inhibit aldose reductase enzyme activity via the procedure of S. Hayman et al., as described in the Journal of Biological Chemistry, Vol. 240, p. 877 (1965) and as modified by K. Sestanj et al. in U.S. Pat. No. 3,821,383. In each case, the substrate employed was partially purified aldose reductase enzyme obtained from human placenta."}, "[1]": {"system": "sorbitol levels in nerve and lens of diabetic subjects", "assay": "Lowering of sorbitol levels in sciatic/peripheral nerve and lens of diabetic subjects (general statement)", "format": "in vivo", "details": "qualitative statement", "method": "as §1"}, "[2]": {"system": "sorbitol accumulation in the sciatic nerve", "assay": "Inhibition of sorbitol accumulation in the sciatic nerve of streptozotocinized (diabetic) rats", "format": "in vivo, rat", "from_the_text": "(§2) As previously indicated, the 5-substituted imidazolidinedione compounds of this inventon are readily adapted to therapeutic use as aldose reductase inhibitors for the control of certain chronic diabetic complications, in view of their ability to reduce lens and peripheral nerve sorbitol levels in diabetic subjects to a statistically significant degree. […] Furthermore, the herein described compounds of this invention can be administered by either the oral, topical or parenteral routes of administration. […]\nas §1, with “rats. […]” for “rats.”"}, "[3]": {"system": "sorbitol accumulation in the lens", "assay": "Inhibition of sorbitol accumulation in the lens of streptozotocinized (diabetic) rats", "format": "in vivo, rat", "from_the_text": "as §2\nas §1, with “rats. […]” for “rats.”"}, "[4]": {"details": "partially purified enzyme from human placenta, read-out: Percent Inhibition of aldose reductase activity"}, "[5]": {"details": "25 mg./kg. orally at 4, 8 and 24 hours after streptozotocin, measured at 27 hours, vs untreated control"}, "[6]": {"details": "diabetic rats, oral, 25 mg./kg."}}, "data": [{"molecule": "O=C1NC(=O)C(N2C(=O)c3cccc4cccc(c34)C2=O)N1", "note": "(stereo not shown) [Example 1, 5-naphthalimido-imidazolidine-2,4-dione]", "values": [{"measurement": "inhibition at 100 µM", "setting": "aldose reductase; 10^-4 M, partially purified enzyme from human placenta, read-out: Percent Inhibition of aldose reductase activity", "value": 100, "unit": "%"}, {"measurement": "inhibition at 10 µM", "setting": "aldose reductase; [4]", "value": 59, "unit": "%"}, {"measurement": "inhibition at 1 µM", "setting": "aldose reductase; [4]", "value": 17, "unit": "%"}, {"measurement": "inhibition at 0.1 µM", "setting": "aldose reductase; [4]", "value": 6, "unit": "%"}, {"measurement": "aldose reductase inhibition (in words)", "setting": "aldose reductase", "value": "potent aldose reductase inhibitors"}, {"measurement": "lowering sorbitol levels in the sciatic nerve and lens of diabetic subjects (in words)", "setting": "[1]", "value": "effective in lowering sorbitol levels"}]}, {"molecule": "O=C1NC(=O)C(c2nn(Cc3ccc(Br)cc3F)c(=O)c3ccccc23)N1", "note": "(stereo not shown) [Example 4, 5-[3-(4'-bromo-2'-fluorobenzyl)-3,4-dihydro-4-oxophthalazin-1-yl]-imidazolidine-2,4-dione]", "values": [{"measurement": "inhibition at 10 µM", "setting": "aldose reductase; [4]", "value": 91, "unit": "%"}, {"measurement": "inhibition at 1 µM", "setting": "aldose reductase; [4]", "value": 86, "unit": "%"}, {"measurement": "inhibition at 0.1 µM", "setting": "aldose reductase; [4]", "value": 72, "unit": "%"}, {"measurement": "inhibition at 0.01 µM", "setting": "aldose reductase; 10^-8 M, partially purified enzyme from human placenta, read-out: Percent Inhibition of aldose reductase activity", "value": 20, "unit": "%"}, {"measurement": "aldose reductase inhibition (in words)", "setting": "aldose reductase", "value": "potent aldose reductase inhibitors"}, {"measurement": "lowering sorbitol levels in the sciatic nerve and lens of diabetic subjects (in words)", "setting": "[1]", "value": "effective in lowering sorbitol levels"}, {"measurement": "reduction in the accumulated sorbitol levels in the sciatic nerve", "setting": "[2]; [5]", "value": 61, "unit": "%"}, {"measurement": "inhibition of the formation of sorbitol levels in the sciatic nerve (in words)", "setting": "[2]; [6]", "value": "to a significantly high degree"}, {"measurement": "reduction in the accumulated sorbitol levels in the lens", "setting": "[3]; [5]", "value": 36, "unit": "%"}, {"measurement": "inhibition of the formation of sorbitol levels in the lens (in words)", "setting": "[3]; [6]", "value": "to a significantly high degree"}]}]}
